Laboratory results reported in patent US10849904B2, “Methods for treatment of retinal disease by photoreceptor gene expression modulation” (University of Washington, priority 2015, dated 2020).

Legend:
Thrb (Trβ2) = experiment: Cone gene expression, Thrb (FIG. 5)
retinas from P0 mice = experiment: P0 mouse retinal explants: Western blot, qPCR, immunohistochemistry; format: cell-based; settings: 1 μM
Protocol: Loss-of-function mutations in Nr2e3 cause an increase in the number of S-opsin+ photoreceptors and a decrease in rhodopsin expression. To determine whether PR1 has similar effects on developing photoreceptors, retinas from P0 mice were explanted in media containing DMSO or 1 μM PR1 and assessed the level of rod genes with Western blots and qPCR after two to five days in vitro (FIG. 7A). […] Expression of additional genes was tested using qPCR. After 2 days in culture PR1 decreased the expression of the rod specific genes Nrl, Nr2e3, Rho, and Gnat1 compared to DMSO (FIG. 7D).
Intact retinas without RPE from mice of various strains and ages as indicated were explanted on 0.4 μm pore tissue culture inserts (Millipore) as previously described (Ueki, Y., et al., P53 is required for the developmental restriction in Muller glial proliferation in mouse retina. Glia, 2012. 60(10): p. 1579-89; Ueki, Y., et al., A transient wave of BMP signaling in the retina is necessary for Muller glial differentiation. Development, 2015. 142(3): p. 533-43. Full media (DMEM/F12 (1:1) containing 1% dialyzed FBS, 1% Pen Strep, 0.3% D+ glucose, 2% B27, and 1% N2) changes were performed every other day and small molecules were used at 0.1 μM to 10 μM. Where indicated, EdU (Invitrogen) was included in the media at 5 μg/mL and visualized by staining with the Click-iT EdU Alexa Fluor kit (Thermo Fisher Scientific). For human retinal explant cultures, tissue from 113 day post-conception fetuses was obtained from the University of Washington Birth Defects Laboratory and explanted on 0.4 μm pore tissue culture inserts (Millipore) in media (Neurobasal A with 1% FBS, 1% Pen Strep, 1% N2, 1% B27) containing 10 μM Photoregulin1 or an equal volume of DMSO.
RNA was isolated using TRIzol (Invitrogen) and cDNA was synthesized using the iScript cDNA synthesis kit (Bio-Rad) following an intervening DNase treatment with RQ1 RNase-free DNase (Promega). SSO Fast (Bio-Rad) was used for quantitative real-time PCR. For analysis, values were normalized to Gapdh and ΔΔCt between DMSO and compound-treated samples was expressed as percent of DMSO treated controls (100*2^ΔΔCt). Two-way Student's t-tests were performed on ΔCt values.
Retinal explants or eyecups were fixed in 4% PFA in 1×PBS for 20 minutes at room temperature and then cryoprotected in 30% sucrose in 1×PBS overnight at 4° C. Samples were embedded in OCT (Sakura Finetek), frozen on dry ice, and then sectioned at 14-16 μm on a cryostat (Leica). Slides were blocked with a solution containing 10% Normal Horse Serum (Vector Labs) and 0.5% Triton X-100 (Sigma-Aldrich) in 1×PBS for 1 hour at room temperature and then stained overnight at 4° C. with primary antibodies diluted in blocking solution. Slides were washed three times with 1×PBS the following day and then incubated in secondary antibodies (Life Technologies) diluted in blocking solution for 2 hours at room temperature, stained with DAPI (Sigma-Aldrich), washed, and coverslipped using Fluoromount-G (SouthernBiotech). An Olympus FluoView FV1000 was used for confocal microscopy.
Retinal explants or retinas were homogenized in lysis buffer (50 mM Tris, 100 mM NaCl, 5 mM EDTA, 0.1% SDS, 1% Triton X-100, 2.5% glycerol, and 1× protease inhibitor cocktail) and equal amounts of protein samples were loaded and run in a 4-20% SDS gel (Bio-Rad). Protein was transferred to a PVDF membrane (Thermo Fisher Scientific), blocked (5% BSA and 0.1% Tween 20 in 1×PBS) and stained with primary antibodies (Supplemental Table S2) and then HRP-conjugated secondaries (Bio-Rad) diluted in blocking solution. Signals were visualized on X-ray film with SuperSignal West Dura Extended Duration Substrate (Thermo Fisher Scientific) and quantified using ImageJ software (NIH).

[1] = test system: retinas from Rho^P23H mice at P12; experiment: P12 Rho^P23H retinal explants, rod degeneration (ONL nuclei, Gnb1); format: cell-based, mouse; settings: 1 μM, vs DMSO
Description: (§1) The effect of PR1 on Rho expression in adult rods might have potential as a way to slow the degeneration of these cells in dominant forms of retinitis pigmentosa, like Rho^P23H. In this disease, the affected individuals express a mutant form of rhodopsin that is likely inappropriately processed and ultimately leads to the death of the rods. […] The majority of rod cell death in the Rho^P23H transgenic line occurs between P14 and P21. Therefore, explants of retinas from Rho^P23H mice at P12 were made and treated the explants with 1 μM PR1 or DMSO (FIG. 9H). After 6 days in vitro, the retinas were processed for histology. The number of nuclei were counted in the ONL of each retina in the central region 100 μm from the optic nerve head. […] Gnb1 expression was also monitored as another measure of rod photoreceptor preservation because this is not directly affected by PR1 and thus serves as a surrogate for rod number. […]
RNA was isolated using TRIzol (Invitrogen) and cDNA was synthesized using the iScript cDNA synthesis kit (Bio-Rad) following an intervening DNase treatment with RQ1 RNase-free DNase (Promega). SSO Fast (Bio-Rad) was used for quantitative real-time PCR. For analysis, values were normalized to Gapdh and ΔΔCt between DMSO and compound-treated samples was expressed as percent of DMSO treated controls (100*2^ΔΔCt). […]

[2] = test system: retina from Rho^P23H transgenic mice at P8; experiment: P8 Rho^P23H retinal explants, rhodopsin Western blot; format: cell-based, mouse; settings: 2 μM, three days
Description: as §1, with “[…] […]” for “Therefore, explants of retinas from Rho^P23H mice at P12 were made and treated the explants with 1 μM PR1 or DMSO (FIG. 9H). After 6 days in vitro, the retinas were processed for histology.”
Retinal explants or retinas were homogenized in lysis buffer (50 mM Tris, 100 mM NaCl, 5 mM EDTA, 0.1% SDS, 1% Triton X-100, 2.5% glycerol, and 1× protease inhibitor cocktail) and equal amounts of protein samples were loaded and run in a 4-20% SDS gel (Bio-Rad). […] Signals were visualized on X-ray film with SuperSignal West Dura Extended Duration Substrate (Thermo Fisher Scientific) and quantified using ImageJ software (NIH).

SMILES: Cc1cc(C)cc(NC(=O)CCc2nc3sc4c(c3c(=O)[nH]2)CCCC4)c1 [PR1, N-(3,5-dimethylphenyl)-3-(4-oxo-5,6,7,8-tetrahydro-3H-[1]benzothiolo[2,3-d]pyrimidin-2-yl)propanamide]
- cone gene expression, Thrb (Trβ2) (Thrb (Trβ2)): increase
- rhodopsin protein, Western blot (retinas from P0 mice; 5 DIV, vs DMSO): less rhodopsin protein
- Crx expression (retinas from P0 mice; 2 days, qPCR, vs DMSO): did not significantly decrease
- Gnat1 expression (retinas from P0 mice; 2 days, qPCR, vs DMSO): decreased
- Gnb1 expression (retinas from P0 mice; 2 days, qPCR, vs DMSO): did not significantly decrease
- Nr2e3 expression (retinas from P0 mice; 2 days, qPCR, vs DMSO): decreased
- Nrl expression (retinas from P0 mice; 2 days, qPCR, vs DMSO): decreased
- Otx2 expression (retinas from P0 mice; 2 days, qPCR, vs DMSO): did not significantly decrease
- Rho expression (retinas from P0 mice; 2 days, qPCR, vs DMSO): decreased
- rhodopsin immunoreactivity in sections (retinas from P0 mice; immunohistochemistry): almost complete absence of rhodopsin immunoreactivity
- Thrb (cone gene) expression (retinas from P0 mice; qPCR, vs DMSO): increased
- level of S opsin immunoreactivity in sectioned explants (retinas from P0 mice; vs DMSO): overall increase
- number of rod photoreceptors (nuclei) in the ONL, 100 μm from the optic nerve head ([1]; 6 days in vitro): nearly twice
- Gnb1 expression (surrogate for rod number) [1]: significantly more Gnb1 expression
- rhodopsin expression in the mutant rods [2]: effectively reduced rhodopsin expression
